Measurements: publication PMC8929329, “The pharmaceutical excipient PEG400 affect the absorption of baicalein in Caco‐2 monolayer model by interacting with UDP‐glucuronosyltransferases and efflux transport proteins” (Pharmacology Research & Perspectives, 2022)

Tests used:
Stability study in HBSS = type: physicochemical; conditions: 37°C, 2 h
Method: The test was carried out by measuring the content of B, BG, and B6G before and after keeping in the HBSS solution at 37°C for 2 h. The time interval was selected according to the permeation experiment. The differences between the contents of the three samples before or after the incubation were calculated and expressed as the percentage of B, BG, and B6G remaining.

BCRP = assay: Permeation experiments on Caco-2 cell monolayer (two-way transport); type: in vitro ADME, human; conditions: human, Caco-2, with KO143 10 µM (BCRP inhibitor), 5 + 10 µM KO143 (BCRP inhibitor); for efflux ratio at 120 min, 5 µM: read-out: ER (P BL-AP)/(P AP-BL); for Papp A→B at 120 min, 5 µM: read-out: P app Absorptive (AP-BL); for Papp B→A at 120 min, 5 µM: read-out: P app Secretory (BL-AP)
Method: (§1) Cell culture was performed as previously described.[15] For transport experiments, Caco-2 cells from passage number 20-30 were seeded at a density of 2 × 10^5 cells per well on transwell plate (a solid insert for cell culture contains porous permeable polycarbonate membrane) with polycarbonate membranes using a blood-counting chamber (QIU JING®). A 0.5 ml of culture medium with cells was added to the apical side (AP) and 1.5 ml of blank culture medium was added to the basolateral side (BL). During the incubation period, the medium on the AP and BL sides were changed every 2 days in the first week, and every day after a week until the 21st day. The permeation of samples was assessed in both directions at different concentrations. This experiment assessed the influence of different concentrations (%, v/v) of PEG400 on the permeation process of B, BG, and […]. […] Caco-2 cell monolayers with qualified monolayer membrane integrity were used for drug permeability experiments. Aspirated and discarded the original culture medium in the transwell plate, added pre-warmed (37°C) HBSS to wash 3 times, put it in the incubator for the last time and incubated for 30 min. […] For the AP-BL permeability (absorptive transport study), add 0.5 ml of samples (dissolved in HBSS) to the apical side (AP) as a supply chamber, and add 1.5 ml of pre-warmed HBSS to the basolateral side (BL) as a receiving chamber. Alternatively, in the permeation direction of BL-AP compartment (secretive transport study), add 1.5 ml of samples (dissolved in HBSS) to the BL side as a supply chamber, and add 0.5 ml of pre-warmed HBSS to the AP side as a receiving chamber. After the above steps, put the transwell plate on the thermostatic oscillator (Changzhou Wanhe Instrument Manufacturing Co., Ltd.) at 60 r/min. And sample 100 μl from the receiving pool or 10 μl from the supply chamber at 30, 60, 90, and 120 min depending on the experiment, and make up the same volume of blank pre-warmed HBSS. The sample taken from the transwell plate was precipitated with the 100 μl of methanol to precipitate the protein. After centrifugation at 16 000g for 15 min at 4°C, 70 μl of the supernatant was taken. And the content was determined by UPLC-MS/MS method to calculate the apparent permeability coefficient (P app) and efflux ratio (ER). The P app and ER of Caco-2 monolayers was measured and calculated as Equations ((2), (3), (4)): (2) Papp=dQ/dt/AC0 Where ΔQ/Δt (ng/ml·s) is the rate of permeability (ng/ml·s for B, BG, […]); A is for the membrane area (1.12 cm^2); C 0 (ng/ml/for B, BG, […]) is the initial concentration of the sample in the supply chamber. The apparent permeability might need to be corrected because of the effect of the marked amount of baicalein glucuronide.[17] Thus, the corrected permeability was calculated from the total rate of drug transport and the glucuronide excretion rate of bidirectional side divided by the membrane area (A) of the monolayer and the initial concentration of baicalein at the loading side (C 0): (3) Pcorrected=dQ/dt+Aex+Bex/AC0 (4) […] - BL Where P appBL-AP is the apparent permeability coefficient when the sample is added on the basolateral side; […]-BL is the apparent permeability coefficient when the sample is added on the apical side.

P-gp = assay: as above; type: in vitro ADME, human; conditions: human, Caco-2, with verapamil 10 µM, 5 + 10 µM Ver (P-GP inhibitor); for efflux ratio at 120 min, 5 µM: read-out: ER (P BL-AP)/(P AP-BL)
Method: as §1

Caco-2 cell monolayer = assay: as above; type: in vitro ADME, human; conditions: for P appAL-BL / P appBL-AL: 5 μM in supply chamber; for permeation within 2 h compared with the control group: AL-BL experiment, baicalein 10 μM loaded with 0.5% (v/v) PEG400; for penetration within 2 h compared with the control group: BL-AP experiment, baicalein 10 μM loaded with 0.5% (v/v) PEG
Method: as §1

MRP2 = assay: as above; type: in vitro ADME, human; conditions: human, Caco-2, with MK-571 10 µM, 5 + 10 µM MK571 (MRP inhibitor); for efflux ratio at 120 min, 5 µM: read-out: ER (P BL-AP)/(P AP-BL); for Papp A→B at 120 min, 5 µM: read-out: P app Absorptive (AP-BL); for Papp B→A at 120 min, 5 µM: read-out: P app Secretory (BL-AP)
Method: as §1

[1] = as above; type: in vitro ADME, human; conditions: human, Caco-2, 5 µM; for efflux ratio at 120 min, 5 µM: read-out: ER (P BL-AP)/(P AP-BL); for Papp A→B at 120 min, 5 µM: read-out: P app Absorptive (AP-BL); for Papp B→A at 120 min, 5 µM: read-out: P app Secretory (BL-AP)
Method: as §1

[2] = design: method as in doi:10.2174/1573412916666200206141439; conditions: effect of PEG400; cited from earlier work

Structure (SMILES) | Stability (percentage remaining) (Stability study in HBSS; 150 ng ml^−1) [%] | Stability (percentage remaining) (Stability study in HBSS; 300 ng ml^−1) [%] | Stability (percentage remaining) (Stability study in HBSS; 600 ng ml^−1) [%] | efflux ratio at 120 min, 5 µM (BCRP) | Papp A→B at 120 min, 5 µM (BCRP) [×10⁻⁶ cm/s] | Papp B→A at 120 min, 5 µM (BCRP) [×10⁻⁶ cm/s] | efflux ratio at 120 min, 5 µM (P-gp) | ER (P BL-AP)/(P AP-BL) (Caco-2 cell monolayer; 5 µM + 0.25%PEG400) | P app Absorptive (AP-BL) (Caco-2 cell monolayer; 5 µM + 0.25%PEG400) | P app Secretory (BL-AP) (Caco-2 cell monolayer; 5 µM + 0.25%PEG400) | ER (P BL-AP)/(P AP-BL) (Caco-2 cell monolayer; 5 µM + 0.5%PEG400) | P app Absorptive (AP-BL) (Caco-2 cell monolayer; 5 µM + 0.5%PEG400) | P app Secretory (BL-AP) (Caco-2 cell monolayer; 5 µM + 0.5%PEG400) | ER (P BL-AP)/(P AP-BL) (Caco-2 cell monolayer; 5 µM + 1%PEG400) | P app Absorptive (AP-BL) (Caco-2 cell monolayer; 5 µM + 1%PEG400) | P app Secretory (BL-AP) (Caco-2 cell monolayer; 5 µM + 1%PEG400) | P appAL-BL (Caco-2 cell monolayer) [×10⁻⁶ cm/s] | P appBL-AL (Caco-2 cell monolayer) [×10⁻⁶ cm/s] | permeation within 2 h compared with the control group (Caco-2 cell monolayer) | penetration within 2 h compared with the control group (Caco-2 cell monolayer) | also measured
O=C(O)[C@H]1O[C@@H](Oc2c(O)cc3oc(-c4ccccc4)cc(=O)c3c2O)[C@H](O)[C@@H](O)[C@@H]1O [B6G, baicalein‐6‐O‐β‐D‐glucuronide] | 98.71 ± 6.52 | 99.36 ± 6.23 | 94.32 ± 5.33 | 0.71 | 6.68 ± 0.06 | 4.77 ± 0.09 | 0.98 | 0.93 | 6.74 ± 0.22 1 × 10^−6 cm·s^−1 | 6.3 ± 0.98 1 × 10^−6 cm·s^−1 | 0.71 | 6.15 ± 0.17 ^* 1 × 10^−6 cm·s^−1 | 4.39 ± 0.31 ^* 1 × 10^−6 cm·s^−1 | 0.56 | 7.53 ± 0.48 ^* 1 × 10^−6 cm·s^−1 | 4.24 ± 0.25 ^** 1 × 10^−6 cm·s^−1 | 6.38 ± 0.26 | 6.35 ± 0.55 | significantly increased | did not show a significant difference | ER (P BL-AP)/(P AP-BL) (Caco-2 cell monolayer; 5 µM): 1.01; P app Absorptive (AP-BL) (Caco-2 cell monolayer; 5 + 10 µM Ver (P-GP inhibitor)): 6.37 ± 0.15 1 × 10^−6 cm·s^−1; P app Secretory (BL-AP) (Caco-2 cell monolayer; 5 + 10 µM Ver (P-GP inhibitor)): 6.26 ± 0.2 1 × 10^−6 cm·s^−1; efflux ratio at 120 min, 5 µM (MRP2): 0.65; Papp A→B at 120 min, 5 µM (MRP2): 6.91 ± 0.23 ×10⁻⁶ cm/s; Papp B→A at 120 min, 5 µM (MRP2): 4.56 ± 0.21 ×10⁻⁶ cm/s; efflux ratio at 120 min, 5 µM [1]: 1.1; Papp A→B at 120 min, 5 µM [1]: 6.38 ± 0.26 ×10⁻⁶ cm/s; Papp B→A at 120 min, 5 µM [1]: 6.35 ± 0.55 ×10⁻⁶ cm/s; AUC0-t in plasma [2]: significantly increased; C max in plasma [2]: significantly increased
O=C(O)[C@H]1O[C@@H](Oc2cc3oc(-c4ccccc4)cc(=O)c3c(O)c2O)[C@H](O)[C@@H](O)[C@@H]1O [BG, baicalein‐7‐O‐β‐D‐glucuronide] | 93.35 ± 8.25 | 99.20 ± 2.56 | 100.61 ± 4.92 | 0.62 | 10.9 ± 0.4 | 7.31 ± 0.9 | 1.65 | 1.03 | 9.91 ± 0.21 ^** 1 × 10^−6 cm·s^−1 | 10.24 ± 0.95 1 × 10^−6 cm·s^−1 | 0.65 | 15.98 ± 0.11 ^** 1 × 10^−6 cm·s^−1 | 10.36 ± 0.05 1 × 10^−6 cm·s^−1 | 0.57 | 14.37 ± 0.99 ^** 1 × 10^−6 cm·s^−1 | 8.24 ± 0.07 ^** 1 × 10^−6 cm·s^−1 | 6.52 ± 0.28 | 10.23 ± 0.37 | significantly increased | did not show a significant difference | Papp A→B at 120 min, 5 µM (P-gp; read-out: P app Absorptive (AP-BL)): 6.37 ± 0.53 ×10⁻⁶ cm/s; Papp B→A at 120 min, 5 µM (P-gp; read-out: P app Secretory (BL-AP)): 10.5 ± 0.14 ×10⁻⁶ cm/s; efflux ratio at 120 min, 5 µM (MRP2): 0.86; Papp A→B at 120 min, 5 µM (MRP2): 13.2 ± 1.22 ×10⁻⁶ cm/s; Papp B→A at 120 min, 5 µM (MRP2): 11.4 ± 0.56 ×10⁻⁶ cm/s; efflux ratio at 120 min, 5 µM [1]: 1.57; Papp A→B at 120 min, 5 µM [1]: 6.52 ± 0.28 ×10⁻⁶ cm/s; Papp B→A at 120 min, 5 µM [1]: 10.2 ± 0.37 ×10⁻⁶ cm/s; AUC0-t in plasma [2]: significantly increased; C max in plasma [2]: significantly increased
